This note sets out measurements from US8349827B2, “Substituted dipyrido-pyrimido-diazepine and benzo-pyrido-pyrimido compounds” (ArQule, Inc., priority 2009, dated 2013).

For one assay, the target named is ABL T315I (Homo sapiens, UniProt P00519, T315I). Put plainly: ABL Kinase Activity Assay (Elisa), ABL T315I. The class given is biochemical. The settings on record: ATP 100 μM, read-out: Abl(T315I) Enzymetic assay (Elisa) % inhibition. Here is the method:
(§1) ABL Kinase Activity Assay
(§2) The disclosed compounds were assayed for their ability to inhibit the activity of ABL kinase. Nunc Maxisorb plates were coated with streptavidin by overnight incubation with 100 μL per well of 1 μg/ml streptavidin in DPBS. Prior to the experiment, the plates were washed with TBST (3×200 μL) and blocked for at least 3 hours by adding 150 μL of 5% BSA/TBST. The plates were washed with TBST (3×200 μL/well) and left dry immediately before the capture step.
(§3) The disclosed test compounds and controls (Gleevec) were prepared using the following assay buffer@10× desired final concentration (50 mM Tris pH 7.0, 0.02 mg/ml BSA, 10 mM MgCl2, 0.1 mM Na3VO4, 1 mM EGTA, 0.01% NP-40, 1 mM DTT in 10% glycerol/water). In a reaction plate, 5 μl test article (or control) and 30 μl ABL or ABL T315I (0.089 nM final concentration, in the above buffer) were added rapidly. The plate was incubated for 20 minutes. To the reaction plate was added ATP (100 μM final concentration) and AblTide (128 nM final concentration) in a volume of 15 μl. The plate was incubated at room temperature for one hour.
(§4) From the reaction plate, 40 μl was transferred to the streptavidin coated plate. The capture plate was incubated at room temperature for 30 minutes, then washed 3× with TBST. To the capture plate was added 100 μL/well of cell signaling anti-phospho tyrosine at a dilution of 1:3000 in 2% BSA/TBST. The plate was incubated for two hours at room temperature then washed 3× with TBST. To the capture plate was added 100 μL/well of alkaline phosphatase tagged goat anti mouse antibody at a dilution of 1:4000 in 2% BSA/TBST. The plate was incubated for one hour at room temperature then washed 3× with TBST.
(§5) The fluorescent readout was initiated by the addition of 100 μl/well of Attophos reagent (6 mg/10 mL). The reading was done on the Perkin Elmer Envision system.

A further assay deals with ABL (Homo sapiens, UniProt P00519). Briefly: ABL Kinase Activity Assay (Elisa), ABL. The settings on record: ATP 100 μM, read-out: Abl Enzymetic assay (Elisa) % inhibition. Format: biochemical. Here is the method:
as §1, §2, §3, §4, §5

Another assay relates to NCI-H1299. Put plainly: MTS assay, NCI-H1299 cells. The class given is cell-based. The settings on record: Homo sapiens, 72 hours. Here is the method:
(§6) Cells were maintained at 37° C., 5% CO2 in DMEM media supplemented with 1% fetal bovine serum, penicillin/streptomycin and fungizone (Invitrogen). Cells were seeded into 96-well tissue culture plates at 3000 per well and cultured at 37° C. for 18 hours. Test compounds were dissolved and diluted to 300× in DMSO then diluted 1:40 in DMEM. Cells were incubated with test compounds for 72 hours followed by incubation with tetrazolium compound (3-(4,5-dimethylthiazol-2-yl)-5-(3-carboxymethoxyphenyl)-2-(4-sulfophenyl)-2H-tetrazolium, inner salt; MTS) and the electron coupling reagent, phenazine methosulfate (PMS) for 4 hours. […] The ability of compounds to inhibit cell growth in this assay is correlated with the reduction of dehydrogenase enzyme activity found in metabolically active cells. The measurement of the absorbance of the formazan was assessed using an ENVISION™ (Perkin Elmer) microplate reader at 492 nm. The calculated IC50 value is the concentration of the test compound that causes a 50% decrease in the absorbance.

The next assay concerns KATO III. Put plainly: MTS assay, KATO III cells. The class given is cell-based. The settings on record: Homo sapiens, 72 hours. The method, then: as §6
Another assay has as its system PACA-2. Put plainly: MTS assay, PACA-2 cells. The class given is cell-based. The settings on record: 72 hours. Here is the method: as §6
Another assay relates to MDA-MB-231. Put plainly: MTS assay, MDA-MB-231 cells. The class given is cell-based. The note with it: Homo sapiens, 72 hours. The method, then: as §6
A further assay has as its system DLD-1. Put plainly: MTS assay, DLD-1 cells. The class given is cell-based. The settings on record: Homo sapiens, 72 hours. The method, then: as §6

Each structure is given as a SMILES string.

As to `Cc1cnc(CNc2ncc3c(n2)-c2cccnc2Nc2cnccc2-3)cn1` [Example 6, N-[(5-methylpyrazin-2-yl)methyl]-9H-dipyrido[2,3-b:4′,3′-f]pyrimido[4,5-d]azepin-2-amine], the inhibition at 10 µM on ABL T315I, at ABL, in the assay with NCI-H1299 and with KATO III was < 50% throughout.
`Cc1cccc(CCNc2ncc3c(n2)-c2cccnc2Nc2cnccc2-3)c1` [Example 41, N-[2-(3-methylphenyl)ethyl]-9H-dipyrido[2,3-b:4′,3′-f]pyrimido[4,5-d]azepin-2-amine]: the inhibition at 10 µM with PACA-2 is < 50%; on ABL T315I it was 80 to 100%; on ABL, 80 to 100%; with NCI-H1299 it was < 50%; in the assay with MDA-MB-231, < 50%; with KATO III, 50 to 79%. For the same molecule, the inhibition at 10 µM in the assay with DLD-1 is < 50%.
For the molecule `Clc1ccc(CCNc2ncc3c(n2)-c2cccnc2Nc2cnccc2-3)cc1` [Example 31, N-[2-(4-chlorophenyl)ethyl]-9H-dipyrido[2,3-b:4′,3′-f]pyrimido[4,5-d]azepin-2-amine], the inhibition at 10 µM was < 50% with PACA-2; 80 to 100% at ABL T315I; 80 to 100% at ABL; < 50% with NCI-H1299; 80 to 100% in the assay with KATO III; 50 to 79% in the assay on DLD-1.
As for `Cc1ccc(CCNc2ncc3c(n2)-c2cccnc2Nc2cnccc2-3)cc1` [Example 16, N-[2-(4-methylphenyl)ethyl]-9H-dipyrido[2,3-b:4′,3′-f]pyrimido[4,5-d]azepin-2-amine], the inhibition at 10 µM was < 50% in the assay on PACA-2; 80 to 100% on ABL T315I; 80 to 100% at ABL; < 50% in the assay on NCI-H1299; < 50% in the assay with MDA-MB-231; 50 to 79% in the assay on KATO III. The inhibition at 10 µM with DLD-1 was < 50%.
`OCCc1cccc(Nc2ncc3c(n2)-c2cccnc2Nc2ccccc2-3)c1` [Example 67, 2-[3-(9H-pyrido[2,3-b]pyrimido[4,5-d][1]benzazepin-2-ylamino)phenyl]ethanol]: the inhibition at 10 µM was 80 to 100% in the assay on PACA-2; 50 to 79% in the assay on NCI-H1299; < 50% with MDA-MB-231; 50 to 79% with KATO III; < 50% in the assay with DLD-1.
Consider `Fc1ccc(CCNc2ncc3c(n2)-c2cccnc2Nc2cnccc2-3)cc1` [Example 19, N-[2-(4-fluorophenyl)ethyl]-9H-dipyrido[2,3-b:4′,3′-f]pyrimido[4,5-d]azepin-2-amine], for which the inhibition at 10 µM is 80 to 100% at ABL T315I; 80 to 100% at ABL; < 50% in the assay with NCI-H1299; < 50% in the assay with MDA-MB-231; < 50% in the assay on KATO III; < 50% in the assay on DLD-1.
Take `c1cnc2c(c1)-c1nc(NCCCN3CCCC3)ncc1-c1ccncc1N2` [Example 37, N-(3-pyrrolidin-1-ylpropyl)-9H-dipyrido[2,3-b:4′,3′-f]pyrimido[4,5-d]azepin-2-amine]: the inhibition at 10 µM was < 50% in the assay with PACA-2, 50 to 79% at ABL, < 50% with NCI-H1299 and < 50% with MDA-MB-231.
In the case of `CCN(CC)CCCNc1ncc2c(n1)-c1cccnc1Nc1cnccc1-2` [Example 44, N′-9H-dipyrido[2,3-b:4′,3′-f]pyrimido[4,5-d]azepin-2-yl-N,N-diethylpropane-1,3-diamine], the inhibition at 10 µM was < 50% in the assay with PACA-2; < 50% on ABL; < 50% in the assay with NCI-H1299; < 50% in the assay with MDA-MB-231; 80 to 100% in the assay with KATO III; < 50% in the assay with DLD-1.
As to `Fc1ccc(CNc2ncc3c(n2)-c2cccnc2Nc2cnccc2-3)cc1Cl` [Example 9, N-(3-chloro-4-fluorobenzyl)-9H-dipyrido[2,3-b:4′,3′-f]pyrimido[4,5-d]azepin-2-amine], the inhibition at 10 µM with PACA-2 is < 50%; at ABL T315I it was 80 to 100%; at ABL, 80 to 100%; in the assay with NCI-H1299, < 50%; with MDA-MB-231, < 50%; in the assay with KATO III it was 50 to 79%. In addition, the inhibition at 10 µM with DLD-1 lay within 50 to 79%.
`COc1cc(CNc2ncc3c(n2)-c2cccnc2Nc2cnccc2-3)cc(OC)c1` [Example 36, N-(3,5-dimethoxybenzyl)-9H-dipyrido[2,3-b:4′,3′-f]pyrimido[4,5-d]azepin-2-amine]: the inhibition at 10 µM was < 50% in the assay with PACA-2; 80 to 100% at ABL T315I; 50 to 79% on ABL; < 50% with NCI-H1299; < 50% in the assay with KATO III; < 50% in the assay on DLD-1.
Regarding `Clc1cccc(CCNc2ncc3c(n2)-c2cccnc2Nc2cnccc2-3)c1` [Example 29, N-[2-(3-chlorophenyl)ethyl]-9H-dipyrido[2,3-b:4′,3′-f]pyrimido[4,5-d]azepin-2-amine], the inhibition at 10 µM was < 50% in the assay with PACA-2; 80 to 100% at ABL T315I; 80 to 100% on ABL; < 50% in the assay on MDA-MB-231; 80 to 100% in the assay on KATO III; < 50% in the assay on DLD-1.
For the molecule `c1ccc(CNc2ncc3c(n2)-c2cccnc2Nc2cnccc2-3)cc1` [Example 12, N-benzyl-9H-dipyrido[2,3-b:4′,3′-f]pyrimido[4,5-d]azepin-2-amine], the inhibition at 10 µM at ABL T315I is 80 to 100%; on ABL, 80 to 100%; with NCI-H1299 it was < 50%; in the assay on MDA-MB-231, < 50%; with KATO III, < 50%; in the assay with DLD-1, < 50%.
On to `Fc1ccccc1CCNc1ncc2c(n1)-c1cccnc1Nc1cnccc1-2` [Example 43, N-[2-(2-fluorophenyl)ethyl]-9H-dipyrido[2,3-b:4′,3′-f]pyrimido[4,5-d]azepin-2-amine], for which the inhibition at 10 µM was < 50% in the assay on PACA-2; 80 to 100% at ABL T315I; 80 to 100% at ABL; < 50% with NCI-H1299; 50 to 79% in the assay with KATO III; < 50% in the assay with DLD-1.
With `FC(F)(F)c1cccc(CNc2ncc3c(n2)-c2cccnc2Nc2cnccc2-3)c1` [Example 30, N-[3-(trifluoromethyl)benzyl]-9H-dipyrido[2,3-b:4′,3′-f]pyrimido[4,5-d]azepin-2-amine], the inhibition at 10 µM in the assay on PACA-2 is < 50%; on ABL T315I it was 80 to 100%; on ABL, 80 to 100%; in the assay with NCI-H1299 it was < 50%; with KATO III it was 80 to 100%; in the assay on DLD-1, 50 to 79%.
Turning to `c1ccc(CCNc2ncc3c(n2)-c2cccnc2Nc2cnccc2-3)cc1` [Example 28, N-(2-phenylethyl)-9H-dipyrido[2,3-b:4′,3′-f]pyrimido[4,5-d]azepin-2-amine], the inhibition at 10 µM at ABL T315I was 80 to 100%; on ABL, 80 to 100%; in the assay with MDA-MB-231 it was < 50%; in the assay with KATO III, 50 to 79%; in the assay on DLD-1, < 50%.
